In data set [1] the test system is mice. Conditions: administered to mice; see U.S. Ser. Nos. 11/433,057 and 11/433,626; cited from earlier work.
Data set [2] is described as follows: water solubility. In kind it is physicochemical.

Turning to `O=C(c1ccc(-c2cccc(Cl)c2)cc1)C1CCN(c2ncccn2)CC1` [(3′-chlorobiphenyl-4-yl)(1-(pyrimidin-2-yl)piperidin-4-yl)methanone], the “effect on learning and memory” value in data set [1] was “increase learning and memory”. The water solubility result in data set [2] is “poorly water soluble”.

The values are drawn from US20090005407A1, “PARTICULATE (3'-CHLOROBIPHENYL-4-YL)(1-(PYRIMIDIN-2-YL)PIPERIDIN-4-YL)METHANONE AND METHODS OF ITS USE” (priority 2007, published 2009).
